According to article PMC5459853, “Cathepsin S inhibition combines control of systemic and peripheral pathomechanisms of autoimmune tissue injury” (Scientific Reports, 2017):
Entries after “also recorded” stand apart in the source; their conditions may differ.

What was measured:
Type in all cases: in vivo
MRL-(Fas)lpr mice [1] = experiment: Experimental SLE and lupus nephritis, treatment week 11 to 19
Experimental: (§1) Four-week-old female MRL-(Fas)lpr mice were purchased from Harlan Winkelmann (Borchen, Germany) and kept under pathogen-free conditions in a 12 hour light and dark cycle with free access to food and water. All animal experiments were performed in accordance with the European protection laws of animal welfare, and with approval by the local government authorities Regierung von Oberbayern (reference number: 55.2.1-54-2532.2-11-12). At 11 or 15 weeks of age only mice with proteinuria (Albustix, Bayer AG, Leverkusen, Germany) were randomized into five different groups (n = 10) receiving different medicated diets: Three groups were fed with chow mixed with either 3, 10 or 30 mg/kg/day RO5459072, another group’s chow was mixed with 100 mg/kg/day mycophenolate mofetil (MMF), and one group received a standard diet (vehicle). The dose of MMF was chosen according to several studies reporting strong efficacy on SLE and lupus nephritis in MRL-(Fas)lpr mice[24]–[26]. […] At the age of 19 weeks all mice were sacrificed by cervical dislocation. Blood and urine samples were collected at different time points as indicated. In other experiments 7 week old female MRL-(Fas)lpr mice were randomized into three groups (n = 3) to receive a single intravenous injection of 10 µg sterile recombinant Cat-S and one group receiving vehicle (100 µl sterile PBS). One of the Cat-S groups was pretreated with 30 mg/kg/day RO5459072 starting one week prior to Cat-S injection; another group was pretreated with a total of four daily intra-peritoneal injections of the PAR-2 inhibitor GB83 (10 mg/kg).
(§2) Kidney tissue samples were collected from all mice and fixed overnight in 4% buffered formalin. Subsequently the fixed tissue samples were embedded in paraffin and cut into 4 µm thick serial sections. Kidney paraffin sections were stained with periodic acid-Schiff (PAS) reaction using standardized protocols as described. Scoring of lupus nephritis activity and chronicity indices was performed according to human lupus nephritis, [43]. Methenamine silver staining was performed on paraffin embedded kidney sections and semiquantitatively scored form 0–3 by a blinded observer. For immunostaining the following primary antibodies were used: anti-mouse CD3 (Abcam, Cambridge, UK), complement C3c (Biobyt Ltd, Cambridge, UK), CD31 (Dianova GmbH, Hamburg, Germany), WT1 (Santa Cruz Biotechnology, Dallas, Texas) and nephrin (Acris Antibodies, San Diego, CA). The immunostaining for C3c and CD31 were analyzed using the ImageJ software by measuring positively stained area and dividing it by the total area of the glomerulus and reported as percentage of +ve area. Sections stained for WT1/nephrin and CD3 were evaluated by counting positive cells per glomerulus. All the morphometric analysis were carried out in a blinded fashion.
(§3) Urinary albumin/creatinine ratios were determined using the Mouse Albumin ELISA Quantitation set (Bethyl Laboratories, Montgomery, TX) and the Creatinine FS kit (DiaSys Diagnostic Systems, Holzheim, Germany)[44]. BUN levels were determined in plasma samples using a Urea FS kit (DiaSys Diagnostic Systems). Mouse IgM, IgG and its isotypes IgG1, IgG2a and IgG2b plasma levels were measured using ELISA Sets (Bethyl Laboratories) at a plasma dilution of 1:1,000 to 1:100,000. Double-stranded DNA IgG and IgM antibodies were quantified as described. Briefly, 96 well Nunc-Immuno plates (Thermo Fisher Scientific, Roskilde, Denmark) were coated with poly-L-lysine (1:1 diluted with PBS) and incubated for two hours. After washing the plates, the plates were coated with 1 µg/ml mouse tail dsDNA sparing the wells for standards, which were coated with anti-mIgG and anti-mIgM (Bethyl Laboratories). The standard curve was fixed from purified mIgG and mIgM (Bethyl Laboratories). The plasma samples were diluted 1:1,000 and added into the wells. After 1 h the assay was developed using HRP-labelled goat anti-mIgG and anti-mIgM and TMB substrate (BD Bioscience, San Diego, CA). […]

MRL-(Fas)lpr mice [2] = experiment: Experimental lupus nephritis, late onset of treatment week 15 to 19; details: late onset week 15-19
Experimental: To further assess the potency of Cat-S inhibition to control advanced lupus nephritis we performed identical experiments with the highest dose of RO5459072 and MMF, which were not initiated before week 15 of age and continued for only 4 weeks and terminated again at week 19.
as §1, §2
as §3, with “Laboratories).” for “Laboratories). The standard curve was fixed from purified mIgG and mIgM (Bethyl Laboratories). The plasma samples were diluted 1:1,000 and added into the wells. After 1 h the assay was developed using HRP-labelled goat anti-mIgG and anti-mIgM and TMB substrate (BD Bioscience, San Diego, CA).”

MRL-(Fas)lpr mice [3] = experiment: Intravenous recombinant Cat-S injection: albuminuria and glomerular ultrastructure (TEM); details: 10 µg recombinant Cat-S i.v.
Experimental: as §1
Urinary albumin/creatinine ratios were determined using the Mouse Albumin ELISA Quantitation set (Bethyl Laboratories, Montgomery, TX) and the Creatinine FS kit (DiaSys Diagnostic Systems, Holzheim, Germany)[44]. BUN levels were determined in plasma samples using a Urea FS kit (DiaSys Diagnostic Systems). Mouse IgM, IgG and its isotypes IgG1, IgG2a and IgG2b plasma levels were measured using ELISA Sets (Bethyl Laboratories) at a plasma dilution of 1:1,000 to 1:100,000. Double-stranded DNA IgG and IgM antibodies were quantified as described. Briefly, 96 well Nunc-Immuno plates (Thermo Fisher Scientific, Roskilde, Denmark) were coated with poly-L-lysine (1:1 diluted with PBS) and incubated for two hours. […] Absorbance was measured at 450 nm using a Tecan Microplate Reader (Biotek, Winnoski, VT). Indirect immunofluorescence was used to quantify ANA in mouse plasma. […]
Mouse kidney tissue was fixed in 2% paraformaldehyde/2% glutaraldehyde and 0.1M sodium phosphate buffer (pH 7.4) for 24 hours and processed as described. Samples were analyzed with a 1200EX electron microscope (JEOL, Tokyo, Japan).

Structure (SMILES) | food intake or body weight between groups (MRL-(Fas)lpr mice [1]; medicated diets, throughout the study period) | intrarenal mRNA expression of IL-6, MCP-1/CCL2, RANTES/CCL5 and CXCL2 (MRL-(Fas)lpr mice [1]; real time PCR, kidney) | intrarenal mRNA expression of TNF-α, IFN-γ and SDF-1/CXCL12 (MRL-(Fas)lpr mice [1]; real time PCR, kidney) | blood urea nitrogen (BUN) over time (MRL-(Fas)lpr mice [1]; week 11-19) | total levels of plasma IgM (MRL-(Fas)lpr mice [1]; week 11-19, ELISA) | plasma dsDNA IgG levels (IgG autoantibodies) (MRL-(Fas)lpr mice [1]; week 11-19, RO5459072 highest dose, MMF 100 mg/kg/day, ELISA) | spleen CD11c+/CD11b+/MHCII+ antigen-presenting cells (MRL-(Fas)lpr mice [1]; week 11-19, flow cytometry) | integrity of the glomerular vasculature (CD31 staining) (MRL-(Fas)lpr mice [1]; week 19) | anti-dsDNA IgM (MRL-(Fas)lpr mice [2]) | lupus nephritis disease chronicity index (MRL-(Fas)lpr mice [2]) | plasma IgM levels (MRL-(Fas)lpr mice [2]) | proteinuria and BUN at week 19 compared to control mice (MRL-(Fas)lpr mice [2]) | plasma IgG and its isotypes and anti-dsDNA IgG (MRL-(Fas)lpr mice [2]; highest dose of RO5459072, MMF) | Cat-S-induced albuminuria (MRL-(Fas)lpr mice [3]; 30 min, RO5459072 30 mg/kg/day pretreatment, GB83 10 mg/kg i.p.) | Cat-S-induced glomerular endothelial cell injury (TEM) (MRL-(Fas)lpr mice [3]; 24 h)
COc1c(C)c2c(c(O)c1C/C=C(\C)CCC(=O)OCCN1CCOCC1)C(=O)OC2 [MMF, mycophenolate mofetil, reference compound] | no significant difference | suppressed | remained unaffected | prevented the progressive increase | suppressed plasma IgM levels below baseline | does not reduce | suppressed | improved | did not affect | failed to significantly suppress | trend toward lower | significantly reduced | had no effect | – | –
CC[C@H](C)[C@H](NC(=O)[C@H](CC1CCCCC1)NC(=O)c1ccno1)C(=O)N1CCC2(CCc3ccccc32)CC1 [GB83, reference compound] | – | – | – | – | – | – | – | – | – | – | – | – | – | completely prevented; also recorded: entirely blocked | completely prevented
